{"source": "patent US6603023B2", "about": "(priority 1996, dated 2003)", "key": {"P388/Adr": {"test_system": "P388/Adr", "assay": "cells", "assay_type": "cell-based, murine", "conditions": "Mus musculus, P388/ADR, 72 h", "in_short": "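Suspension leukemic cells (CCRF-CEM, P388 and drug-resistant sublines kept under the selecting agent) were seeded at 5×10^4 cells/mL in RPMI-1640 with 10% FBS at 37 °C. After 72 h drug exposure in duplicate, PMS-XTT was added for 4 h. Absorbance was read at 450 and 630 nm.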"}, "[1]": {"test_system": "human mammary carcinoma MX-1 xenograft", "conditions": "for Average Body Weight, Day 7: initial weight, first treatment day", "method": "DMSO was used as a vehicle for epothilones. Each mouse received ≦40 μL DMSO in all experiments.\nAthymic nude mice (nu/nu) were used for MX-1 and MCF-7/Adr human mammary carcinoma xenografts. Mice were obtained from Taconic Laboratory Animals and Service (Germantown, N.Y.: outbred, Swiss background)."}, "[2]": {"conditions": "Taxol 5 mg/kg on day 8-16 and 18-26, n = 10"}, "[3]": {"conditions": "Taxol 24 mg/kg, 6 hr i.v. infusion Q2D x 5 (day 8-16)"}, "[4]": {"conditions": "dEpo B 30, Taxol 15 mg/kg, 6 hr i.v. infusion Q2D x 5 (day 8-16), TD: Tumor disappearance"}, "[5]": {"conditions": "extended experiment, Desoxyepo B 40, Taxol 5 mg/kg i.p. Q2D day 8-16 and 18-26"}, "[6]": {"conditions": "high doses: dEpoB 25, EpoB 0.6, Taxol 10, Vinblastine 0.4 mg/kg i.p. Q2D from day 7"}, "[7]": {"conditions": "low doses: dEpoB 15, EpoB 0.3, Taxol 5, Vinblastine 0.2 mg/kg i.p. Q2D day 7-15"}}, "note": "Where two headings read alike, the source gives them in different places."}
{"molecule": "CC(=O)O[C@H]1C(=O)[C@@]2(C)[C@H]([C@H](OC(=O)c3ccccc3)[C@]3(O)C[C@H](OC(=O)[C@H](O)[C@@H](NC(=O)c4ccccc4)c4ccccc4)C(C)=C1C3(C)C)[C@]1(OC(C)=O)CO[C@@H]1C[C@@H]2O", "note": "[Taxol ®, paclitaxel]", "values": [{"measurement": "IC50", "setting": "P388/Adr", "value": 0.326, "unit": "µM"}, {"measurement": "Average Body Weight Change", "setting": "[1]; 5 mg/kg i.p. Q2Dx5 from day 7, day 11", "value": -0.1, "unit": "g"}, {"measurement": "Average Body Weight Change", "setting": "[1]; 5 mg/kg i.p. Q2Dx5 from day 7, day 13", "value": "+0.4 g"}, {"measurement": "Average Body Weight Change", "setting": "[1]; 5 mg/kg i.p. Q2Dx5 from day 7, day 15", "value": "+1.1 g"}, {"measurement": "Average Body Weight Change", "setting": "[1]; 5 mg/kg i.p. Q2Dx5 from day 7, day 17", "value": "+1.2 g"}, {"measurement": "Tumor Disapp.", "setting": "[1]; 5 mg/kg i.p. Q2Dx5 from day 9", "value": "0/6"}, {"measurement": "Average Body Weight Change", "setting": "[1]; 5 mg/kg i.p. Q2Dx5 from day 9, day 13", "value": -1.1, "unit": "g"}, {"measurement": "Average Body Weight Change", "setting": "[1]; 5 mg/kg i.p. Q2Dx5 from day 9, day 15", "value": -2.0, "unit": "g"}, {"measurement": "Average Body Weight Change", "setting": "[1]; 5 mg/kg i.p. Q2Dx5 from day 9, day 17", "value": -1.0, "unit": "g"}, {"measurement": "Average Body Weight Change", "setting": "[1]; 5 mg/kg i.p. Q2Dx5 from day 9, day 19", "value": -0.2, "unit": "g"}, {"measurement": "Tumor Disappearance", "setting": "[1]; 5 mg/kg i.p. d8,10,12,14,16", "value": "2/10"}, {"measurement": "Tumor Disappearance", "setting": "[1]; 5 mg/kg i.p. d18-26, extended after d8-16, day 20", "value": "0/10^"}, {"measurement": "Tumor Disappearance", "setting": "[1]; 5 mg/kg i.p. d18-26, extended after d8-16, day 22", "value": "0/10"}, {"measurement": "Tumor Disappearance", "setting": "[1]; 5 mg/kg i.p. d18-26, extended after d8-16, day 24", "value": "0/10"}, {"measurement": "Tumor Disappearance", "setting": "[1]; 5 mg/kg i.p. d18-26, extended after d8-16, day 26", "value": "0/10"}, {"measurement": "Tumor Disappearance", "setting": "[1]; 5 mg/kg i.p. d18-26, extended after d8-16, day 28", "value": "0/10"}, {"measurement": "Average Body Weight Change", "setting": "[1]; 10 mg/kg i.p. Q2Dx5 from day 7, day 11", "value": -2.7, "unit": "g"}, {"measurement": "Average Body Weight Change", "setting": "[1]; 10 mg/kg i.p. Q2Dx5 from day 7, day 13", "value": -1.1, "unit": "g"}, {"measurement": "Average Body Weight Change", "setting": "[1]; 10 mg/kg i.p. Q2Dx5 from day 7, day 15", "value": -0.3, "unit": "g"}, {"measurement": "Average Body Weight Change", "setting": "[1]; 10 mg/kg i.p. Q2Dx5 from day 7, day 17", "value": "+2.2 g"}, {"measurement": "Tumor Disappearance", "setting": "[1]; 10 mg/kg i.p. d8,10,12,14,16", "value": "2/6"}, {"measurement": "tumor reappeared on day", "setting": "[1]; 10 mg/kg, no extended test", "value": "Reappeared on day 38"}, {"measurement": "Tumor Disappearance", "setting": "[1]; 10 mg/kg, no extended test, day 16", "value": "1/6 on day 16"}, {"measurement": "Lowest Average Tumor Size (T/C)", "setting": "[1]; MX-1, dEpoB 30 mg/kg Q2D x 6, Taxol 15 mg/kg Q2D x 6", "value": 0, "unit": "T/C"}, {"measurement": "tumor volume reduction", "setting": "[1]; Taxol 5 mg/kg i.p. Q2Dx5 from day 8", "value": 53, "unit": "%"}, {"measurement": "Tumor Size (group average), Day 8", "setting": "[1]; [2]", "value": 17, "unit": "mm^3"}, {"measurement": "Tumor Size (group average), Day 10", "setting": "[1]; [2]", "value": 45, "unit": "mm^3"}, {"measurement": "Tumor Size (group average), Day 12", "setting": "[1]; [2]", "value": 54, "unit": "mm^3"}, {"measurement": "Tumor Size (group average), Day 14", "setting": "[1]; [2]", "value": 128, "unit": "mm^3"}, {"measurement": "Tumor Size (group average), Day 16", "setting": "[1]; [2]", "value": 311, "unit": "mm^3"}, {"measurement": "Tumor Size (group average), Day 18", "setting": "[1]; [2]", "value": 596, "unit": "mm^3"}, {"measurement": "Tumor Size (group average), Day 20", "setting": "[1]; [2]", "value": 1114, "unit": "mm^3"}, {"measurement": "Tumor Size (group average), Day 22", "setting": "[1]; [2]", "value": 1930, "unit": "mm^3"}, {"measurement": "Tumor Size (group average), Day 24", "setting": "[1]; [2]", "value": 2285, "unit": "mm^3"}, {"measurement": "Tumor reappearance (Reappear on day)", "setting": "[1]; Taxol 10 mg/kg, no extended test", "value": "Reappear on day 38"}, {"measurement": "Tumor Disappearance", "setting": "[1]; Taxol 10 mg/kg, on day 16, no extended test", "value": "1/6 on day 16,"}, {"measurement": "Tumor Disapp.", "setting": "[1]; Taxol 15 mg/kg i.v. Q2Dx5 from day 9", "value": "2/6"}, {"measurement": "Average Body Weight (change), Day 14", "setting": "[1]; [3]", "value": -4.8, "unit": "g"}, {"measurement": "Average Body Weight (change), Day 16", "setting": "[1]; [3]", "value": -5.3, "unit": "g"}, {"measurement": "Average Body Weight (change), Day 18", "setting": "[1]; [3]", "value": -6.0, "unit": "g"}, {"measurement": "Average Body Weight (change), Day 20", "setting": "[1]; [3]", "value": -6.2, "unit": "g"}, {"measurement": "Tumor Disappearance", "setting": "[1]; [3]", "value": "4/4"}, {"measurement": "Average Tumor Size (T/C), Day 14", "setting": "[1]; Taxol 24 mg/kg, 6 hr i.v. infusion Q2D x 5 (day 8-16), TD: Tumor disappearance", "value": 0.03, "unit": "T/C"}, {"measurement": "Tumor Disappearance", "setting": "[1]; dEpo B 30, Taxol 15 mg/kg, 6 hr i.v. infusion Q2D x 5 (day 8-16)", "value": "4/4"}, {"measurement": "Average Tumor Size (T/C), Day 14", "setting": "[1]; [4]", "value": 0.06, "unit": "T/C"}, {"measurement": "Average Tumor Size (T/C), Day 16", "setting": "[1]; [4]", "value": 0.01, "unit": "T/C"}, {"measurement": "Average Body Weight Change, Day 20", "setting": "[1]; [5]", "value": -1.6, "unit": "g"}, {"measurement": "Average Body Weight Change, Day 22", "setting": "[1]; [5]", "value": -0.3, "unit": "g"}, {"measurement": "Average Body Weight Change, Day 24", "setting": "[1]; [5]", "value": "+0.1 g"}, {"measurement": "Average Body Weight Change, Day 26", "setting": "[1]; [5]", "value": -0.6, "unit": "g"}, {"measurement": "Average Body Weight Change, Day 28", "setting": "[1]; [5]", "value": -0.4, "unit": "g"}, {"measurement": "Tumor Disappearance, Day 20", "setting": "[1]; [5]", "value": "0/10"}, {"measurement": "Tumor Disappearance, Day 22", "setting": "[1]; [5]", "value": "0/10"}, {"measurement": "Tumor Disappearance, Day 24", "setting": "[1]; [5]", "value": "0/10"}, {"measurement": "Tumor Disappearance, Day 26", "setting": "[1]; [5]", "value": "0/10"}, {"measurement": "Tumor Disappearance, Day 28", "setting": "[1]; [5]", "value": "0/10"}, {"measurement": "Average Tumor Volume (T/C), Day 11", "setting": "[1]; [6]", "value": 0.43, "unit": "T/C"}, {"measurement": "Average Tumor Volume (T/C), Day 13", "setting": "[1]; [6]", "value": 0.37, "unit": "T/C"}, {"measurement": "Average Tumor Volume (T/C), Day 15", "setting": "[1]; [6]", "value": 0.12, "unit": "T/C"}, {"measurement": "Average Tumor Volume (T/C), Day 17", "setting": "[1]; [6]", "value": 0.11, "unit": "T/C"}, {"measurement": "Average Body Weight, Day 7", "setting": "[1]; [6]", "value": 27.6, "unit": "g"}, {"measurement": "Average Body Weight, Day 7", "setting": "[1]; [7]", "value": 26.9, "unit": "g"}, {"measurement": "Average Tumor Volume (T/C), Day 11", "setting": "[1]; [7]", "value": 0.54, "unit": "T/C"}, {"measurement": "Average Tumor Volume (T/C), Day 13", "setting": "[1]; [7]", "value": 0.46, "unit": "T/C"}, {"measurement": "Average Tumor Volume (T/C), Day 15", "setting": "[1]; [7]", "value": 0.40, "unit": "T/C"}, {"measurement": "Average Tumor Volume (T/C), Day 17", "setting": "[1]; [7]", "value": 0.45, "unit": "T/C"}, {"measurement": "# Mice Died", "setting": "[1]; male, athymic nude (nu/nu), mouse, in vivo", "value": "0/10"}]}
